The target of assay [1] is T1, HCK (Homo sapiens, UniProt P08631).
T1 construct: endogenous in cells
The experiment in a line: Kinobeads competition binding: HCK. The settings on record: target HCK. The source says: Supplement 41589_2023_1459_MOESM4_ESM.xlsx, sheet "CATDS matrix" | column: HCK

Assay [2] has as its target T2, AKT1 (Homo sapiens, UniProt P31749).
T2 construct: endogenous in cells
Description: Kinobeads competition binding: AKT1. As to conditions: target AKT1. An excerpt:
Supplement 41589_2023_1459_MOESM4_ESM.xlsx, sheet "CATDS matrix" | column: AKT1

For assay [3], the system named is JAK1. The experiment in a line: Kinobeads competition binding: JAK1.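 Further: target engagement share of this target among all targets at its Kdapp concentration.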 Details: species or system human. The settings on record: target JAK1.
In assay [4] the target is T3, CIT (Homo sapiens, UniProt O14578).
T3 construct: endogenous in cells
The experiment in a line: Kinobeads competition binding: CIT. As to conditions: target CIT. An excerpt: Supplement 41589_2023_1459_MOESM4_ESM.xlsx, sheet "CATDS matrix" | column: CIT

Assay [5] addresses T4, BUB1 (Homo sapiens, UniProt O43683).
T4 construct: endogenous in cells
Description: Kinobeads competition binding: BUB1. The settings on record: target BUB1.

Assay [6] deals with MAPK9. The experiment in a line: Kinobeads competition binding: MAPK9. Details: species or system human. The settings on record: target MAPK9.
The target of assay [7] is T5, PIK3CG (Homo sapiens, UniProt P48736).
T5 construct: endogenous in cells
The experiment in a line: Kinobeads competition binding: PIK3CG.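 Further: selectivity score: engagement of this protein divided by summed engagement of all targets.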 The settings on record: target PIK3CG. The source says: Supplement 41589_2023_1459_MOESM4_ESM.xlsx, sheet "CATDS matrix" | column: PIK3CG

Assay [8] concerns the target T6, EPHB3 (Homo sapiens, UniProt P54753).
T6 construct: endogenous in cells
T6 sequence (P54753 34-998): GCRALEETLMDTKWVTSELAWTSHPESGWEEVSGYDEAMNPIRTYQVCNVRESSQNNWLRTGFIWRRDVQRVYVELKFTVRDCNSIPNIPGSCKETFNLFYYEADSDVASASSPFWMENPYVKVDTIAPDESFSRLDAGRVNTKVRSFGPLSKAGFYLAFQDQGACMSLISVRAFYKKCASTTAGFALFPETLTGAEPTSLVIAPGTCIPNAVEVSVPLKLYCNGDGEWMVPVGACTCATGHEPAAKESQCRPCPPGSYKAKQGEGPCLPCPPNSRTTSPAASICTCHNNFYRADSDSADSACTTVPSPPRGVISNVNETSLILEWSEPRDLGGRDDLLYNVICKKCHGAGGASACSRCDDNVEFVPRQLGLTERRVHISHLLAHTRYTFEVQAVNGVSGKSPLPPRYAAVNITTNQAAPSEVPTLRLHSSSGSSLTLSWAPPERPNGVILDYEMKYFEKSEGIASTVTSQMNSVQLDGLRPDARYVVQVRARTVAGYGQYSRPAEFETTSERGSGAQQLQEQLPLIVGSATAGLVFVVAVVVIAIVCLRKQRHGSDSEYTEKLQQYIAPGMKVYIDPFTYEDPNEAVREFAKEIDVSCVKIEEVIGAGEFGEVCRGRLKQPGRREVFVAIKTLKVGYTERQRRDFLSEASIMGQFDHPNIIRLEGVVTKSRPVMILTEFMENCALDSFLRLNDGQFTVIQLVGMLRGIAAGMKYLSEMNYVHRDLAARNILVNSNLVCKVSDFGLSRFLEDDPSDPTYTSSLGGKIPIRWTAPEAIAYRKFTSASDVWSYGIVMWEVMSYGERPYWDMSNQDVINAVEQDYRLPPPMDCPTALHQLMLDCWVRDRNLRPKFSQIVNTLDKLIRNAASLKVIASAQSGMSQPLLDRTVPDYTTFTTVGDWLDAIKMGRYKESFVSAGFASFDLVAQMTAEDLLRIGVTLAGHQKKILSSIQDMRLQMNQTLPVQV
Description: Kinobeads competition binding: EPHB3. As to conditions: target EPHB3. An excerpt:
Supplement 41589_2023_1459_MOESM4_ESM.xlsx, sheet "CATDS matrix" | column: EPHB3

The test system of assay [9] is ARAF. The experiment in a line: Kinobeads competition binding: ARAF. On the set-up: species or system human. As to conditions: target ARAF.
In assay [10] the target is T7, FER (Homo sapiens, UniProt P16591).
T7 construct: endogenous in cells
Description: Kinobeads competition binding: FER. The settings on record: target FER. The source says: Supplement 41589_2023_1459_MOESM4_ESM.xlsx, sheet "CATDS matrix" | column: FER

In assay [11] the test system is MTOR. The experiment in a line: Kinobeads competition binding: MTOR. As to conditions: target MTOR. On the set-up: species or system human.
Assay [12] addresses T8, PIK3CD (Homo sapiens, UniProt O00329).
T8 construct: a mixture of lysates from five cancer cell lines; endogenous in cells
Description: Kinobeads competition binding: PIK3CD. The settings on record: target PIK3CD.

The subject of assay [13] is FECH. The experiment in a line: Kinobeads competition binding: FECH. Details: species or system human. As to conditions: target FECH.
In assay [14] the test system is LIMK2. The experiment in a line: Kinobeads competition binding: LIMK2. On the set-up: species or system human. The settings on record: target LIMK2.
For assay [15], the system named is PI4KB. Description: Kinobeads competition binding: PI4KB.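 Further: selectivity score: engagement of this protein divided by summed engagement of all targets.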 Details: species or system human. The settings on record: target PI4KB.
Assay [16] concerns the target T9, CAMK2G (Homo sapiens, UniProt Q13555).
T9 construct: endogenous in cells
The experiment in a line: Kinobeads competition binding: CAMK2G. The settings on record: target CAMK2G.

Assay [17] relates to FLAD1. Description: Kinobeads competition binding: FLAD1.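 Further: selectivity score: engagement of this protein divided by summed engagement of all targets.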 As to conditions: target FLAD1. Details: species or system human.
Assay [18] has as its target T10, EPHA7 (Homo sapiens, UniProt Q15375).
T10 construct: endogenous in cells
Description: Kinobeads competition binding: EPHA7. As to conditions: target EPHA7. The source says:
Supplement 41589_2023_1459_MOESM4_ESM.xlsx, sheet "CATDS matrix" | column: EPHA7

The target of assay [19] is T11, CDC7 (Homo sapiens, UniProt O00311).
T11 construct: endogenous in cells
The experiment in a line: Kinobeads competition binding: CDC7. As to conditions: target CDC7.

Assay [20] relates to PIK3CB. The experiment in a line: Kinobeads competition binding: PIK3CB. On the set-up: species or system human. As to conditions: target PIK3CB.
Assay [21] concerns the target T12, BTK (Homo sapiens, UniProt Q06187).
T12 construct: endogenous in cells
Description: Kinobeads competition binding: BTK. As to conditions: target BTK. An excerpt:
Supplement 41589_2023_1459_MOESM4_ESM.xlsx, sheet "CATDS matrix" | column: BTK

Assay [22] concerns the target T13, BCR (Homo sapiens, UniProt P00519+P11274).
T13 construct: endogenous in cells
Description: Kinobeads competition binding: BCR. As to conditions: target BCR. The source says:
Supplement 41589_2023_1459_MOESM4_ESM.xlsx, sheet "CATDS matrix" | column: BCR

In assay [23] the target is T14, CDK6 (Homo sapiens, UniProt Q00534).
T14 construct: endogenous in cells
The experiment in a line: Kinobeads competition binding: CDK6. As to conditions: target CDK6.

T8 sequence (O00329 whole entry): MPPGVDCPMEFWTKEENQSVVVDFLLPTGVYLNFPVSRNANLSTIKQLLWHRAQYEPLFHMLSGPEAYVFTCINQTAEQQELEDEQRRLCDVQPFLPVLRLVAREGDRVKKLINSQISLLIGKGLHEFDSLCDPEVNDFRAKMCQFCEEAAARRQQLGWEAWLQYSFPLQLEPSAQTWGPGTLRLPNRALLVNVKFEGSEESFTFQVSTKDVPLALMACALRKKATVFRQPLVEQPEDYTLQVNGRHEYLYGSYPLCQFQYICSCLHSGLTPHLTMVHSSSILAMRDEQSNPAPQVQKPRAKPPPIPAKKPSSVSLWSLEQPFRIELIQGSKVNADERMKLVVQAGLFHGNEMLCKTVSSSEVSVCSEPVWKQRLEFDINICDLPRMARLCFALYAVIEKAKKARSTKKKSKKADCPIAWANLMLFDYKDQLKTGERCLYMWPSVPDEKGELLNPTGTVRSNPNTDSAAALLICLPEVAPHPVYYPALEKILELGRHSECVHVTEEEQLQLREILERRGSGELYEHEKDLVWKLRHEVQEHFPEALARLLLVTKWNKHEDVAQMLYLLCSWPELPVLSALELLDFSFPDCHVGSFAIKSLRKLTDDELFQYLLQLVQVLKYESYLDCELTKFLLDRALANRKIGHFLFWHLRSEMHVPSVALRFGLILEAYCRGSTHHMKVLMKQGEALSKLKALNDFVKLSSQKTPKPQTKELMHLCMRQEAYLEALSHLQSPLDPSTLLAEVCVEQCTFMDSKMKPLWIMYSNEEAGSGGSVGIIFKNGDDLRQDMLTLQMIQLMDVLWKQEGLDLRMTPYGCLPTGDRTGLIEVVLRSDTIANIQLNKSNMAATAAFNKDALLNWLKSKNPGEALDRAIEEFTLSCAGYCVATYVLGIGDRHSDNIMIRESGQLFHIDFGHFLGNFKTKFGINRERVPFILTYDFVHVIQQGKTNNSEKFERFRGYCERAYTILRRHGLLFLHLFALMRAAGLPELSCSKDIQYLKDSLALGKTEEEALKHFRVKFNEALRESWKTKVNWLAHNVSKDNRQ
T8 sequence (P27986 whole entry partner): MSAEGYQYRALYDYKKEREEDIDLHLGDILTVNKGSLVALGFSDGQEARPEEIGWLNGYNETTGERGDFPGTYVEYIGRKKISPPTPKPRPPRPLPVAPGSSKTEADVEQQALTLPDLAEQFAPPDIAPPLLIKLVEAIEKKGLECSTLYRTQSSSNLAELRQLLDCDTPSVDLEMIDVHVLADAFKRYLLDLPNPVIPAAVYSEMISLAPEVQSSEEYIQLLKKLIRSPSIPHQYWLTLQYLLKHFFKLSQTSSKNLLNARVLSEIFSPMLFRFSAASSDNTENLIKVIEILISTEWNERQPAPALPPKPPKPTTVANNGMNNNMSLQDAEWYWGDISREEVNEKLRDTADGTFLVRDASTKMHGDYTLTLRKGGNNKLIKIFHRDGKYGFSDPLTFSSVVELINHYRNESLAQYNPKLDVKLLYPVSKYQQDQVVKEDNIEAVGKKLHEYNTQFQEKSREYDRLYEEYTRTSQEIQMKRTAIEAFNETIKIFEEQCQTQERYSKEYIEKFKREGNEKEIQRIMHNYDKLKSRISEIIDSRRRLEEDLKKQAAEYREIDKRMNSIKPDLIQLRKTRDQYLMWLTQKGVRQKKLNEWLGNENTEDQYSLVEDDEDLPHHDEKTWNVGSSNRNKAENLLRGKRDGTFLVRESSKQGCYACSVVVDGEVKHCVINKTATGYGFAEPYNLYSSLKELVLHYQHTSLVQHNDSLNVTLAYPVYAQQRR
T10 sequence (Q15375 28-998): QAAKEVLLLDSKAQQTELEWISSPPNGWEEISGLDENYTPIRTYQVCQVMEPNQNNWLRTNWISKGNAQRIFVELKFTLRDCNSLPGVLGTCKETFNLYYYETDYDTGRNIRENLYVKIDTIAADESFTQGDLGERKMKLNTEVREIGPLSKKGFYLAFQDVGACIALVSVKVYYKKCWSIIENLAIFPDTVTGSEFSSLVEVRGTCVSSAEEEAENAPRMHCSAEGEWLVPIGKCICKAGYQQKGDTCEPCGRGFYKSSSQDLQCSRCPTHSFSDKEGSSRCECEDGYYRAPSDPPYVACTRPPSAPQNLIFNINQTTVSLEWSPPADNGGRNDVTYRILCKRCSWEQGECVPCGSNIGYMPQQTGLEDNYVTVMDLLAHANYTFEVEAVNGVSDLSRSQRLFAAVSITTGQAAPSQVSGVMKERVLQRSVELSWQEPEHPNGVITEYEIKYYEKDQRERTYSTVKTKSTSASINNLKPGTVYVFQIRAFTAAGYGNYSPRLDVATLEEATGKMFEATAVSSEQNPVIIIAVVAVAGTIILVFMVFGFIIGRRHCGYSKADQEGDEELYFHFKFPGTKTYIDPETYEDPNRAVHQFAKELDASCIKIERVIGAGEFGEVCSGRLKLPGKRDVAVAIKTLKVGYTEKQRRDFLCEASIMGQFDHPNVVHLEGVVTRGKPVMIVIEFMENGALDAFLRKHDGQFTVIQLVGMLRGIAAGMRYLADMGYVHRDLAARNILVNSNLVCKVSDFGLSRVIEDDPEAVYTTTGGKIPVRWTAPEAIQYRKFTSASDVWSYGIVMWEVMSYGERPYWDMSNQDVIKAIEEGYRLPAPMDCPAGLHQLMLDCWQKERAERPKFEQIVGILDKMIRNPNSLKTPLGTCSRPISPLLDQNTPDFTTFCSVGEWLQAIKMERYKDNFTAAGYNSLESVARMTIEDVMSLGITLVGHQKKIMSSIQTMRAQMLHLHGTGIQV
T14 sequence (Q00534 whole entry): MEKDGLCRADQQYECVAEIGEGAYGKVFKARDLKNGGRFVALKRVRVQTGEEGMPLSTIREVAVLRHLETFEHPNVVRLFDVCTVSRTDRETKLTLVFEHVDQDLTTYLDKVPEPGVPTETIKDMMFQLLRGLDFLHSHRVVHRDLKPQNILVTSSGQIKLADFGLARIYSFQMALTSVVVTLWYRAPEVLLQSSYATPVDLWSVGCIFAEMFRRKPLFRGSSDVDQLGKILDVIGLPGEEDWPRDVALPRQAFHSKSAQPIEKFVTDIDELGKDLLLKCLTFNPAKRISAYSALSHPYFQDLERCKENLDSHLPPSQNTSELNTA
T11 sequence (O00311 whole entry): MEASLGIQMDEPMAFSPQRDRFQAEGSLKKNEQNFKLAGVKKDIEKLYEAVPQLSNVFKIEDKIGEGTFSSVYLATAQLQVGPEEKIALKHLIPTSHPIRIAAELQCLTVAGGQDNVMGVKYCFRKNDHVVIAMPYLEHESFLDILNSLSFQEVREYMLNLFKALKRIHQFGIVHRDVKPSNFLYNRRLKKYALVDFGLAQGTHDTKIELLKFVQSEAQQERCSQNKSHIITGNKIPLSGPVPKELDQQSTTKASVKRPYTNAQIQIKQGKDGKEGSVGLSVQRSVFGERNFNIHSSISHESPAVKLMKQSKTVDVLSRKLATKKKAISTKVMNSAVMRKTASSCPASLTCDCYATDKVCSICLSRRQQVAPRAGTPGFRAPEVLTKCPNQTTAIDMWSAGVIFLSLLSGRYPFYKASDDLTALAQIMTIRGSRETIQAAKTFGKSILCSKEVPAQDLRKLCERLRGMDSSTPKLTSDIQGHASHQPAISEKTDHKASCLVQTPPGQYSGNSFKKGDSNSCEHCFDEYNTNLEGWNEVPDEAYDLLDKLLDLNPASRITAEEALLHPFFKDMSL
T4 sequence (O43683 whole entry): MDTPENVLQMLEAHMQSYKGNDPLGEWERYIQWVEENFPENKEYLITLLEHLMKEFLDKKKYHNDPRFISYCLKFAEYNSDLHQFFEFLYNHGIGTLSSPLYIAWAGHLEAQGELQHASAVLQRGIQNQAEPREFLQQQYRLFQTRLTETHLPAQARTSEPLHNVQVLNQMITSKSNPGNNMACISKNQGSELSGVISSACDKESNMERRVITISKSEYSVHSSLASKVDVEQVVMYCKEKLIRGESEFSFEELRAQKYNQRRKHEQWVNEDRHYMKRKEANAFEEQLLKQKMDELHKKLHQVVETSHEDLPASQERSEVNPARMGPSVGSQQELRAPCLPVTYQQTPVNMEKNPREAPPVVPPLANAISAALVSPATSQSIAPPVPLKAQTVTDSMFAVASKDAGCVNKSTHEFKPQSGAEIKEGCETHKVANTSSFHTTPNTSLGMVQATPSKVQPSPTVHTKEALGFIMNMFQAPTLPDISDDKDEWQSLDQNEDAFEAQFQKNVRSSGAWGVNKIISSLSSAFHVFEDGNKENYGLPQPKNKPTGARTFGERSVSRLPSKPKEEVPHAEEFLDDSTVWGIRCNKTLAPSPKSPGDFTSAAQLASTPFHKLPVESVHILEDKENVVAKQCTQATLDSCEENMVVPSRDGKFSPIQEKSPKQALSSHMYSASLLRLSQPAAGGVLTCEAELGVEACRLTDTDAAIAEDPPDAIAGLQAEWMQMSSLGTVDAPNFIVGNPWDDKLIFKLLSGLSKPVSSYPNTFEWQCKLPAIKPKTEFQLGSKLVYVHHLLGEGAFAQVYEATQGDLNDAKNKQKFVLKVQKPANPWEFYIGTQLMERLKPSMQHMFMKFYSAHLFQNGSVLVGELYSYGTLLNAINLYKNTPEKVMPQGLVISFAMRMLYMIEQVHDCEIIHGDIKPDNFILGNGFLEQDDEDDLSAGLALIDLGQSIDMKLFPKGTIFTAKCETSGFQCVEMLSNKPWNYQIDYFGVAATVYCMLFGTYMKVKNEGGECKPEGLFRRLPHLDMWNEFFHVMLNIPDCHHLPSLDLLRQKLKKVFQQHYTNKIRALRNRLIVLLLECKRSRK

Turning to `CCN1CCN(Cc2ccc(Nc3ncc(F)c(-c4cc(F)c5nc(C)n(C(C)C)c5c4)n3)nc2)CC1` [Abemaciclib], the CATDS in assay [1] is 0; in [2] it was 0; in assay [3] it was 0; in assay [4], 0.02291; in assay [5], 0; in [6], 0. For the same compound, the CATDS in [7], in assay [8], in [9], in assay [10], in assay [11] and in assay [12] was 0 throughout. Moreover, the CATDS in assay [13] is 0; in [14], 0; in [15], 0; in assay [16], 0.09397; in [17] it was 0; in assay [18], 0. In addition, the CATDS in [19], in [20], in assay [21] and in assay [22] was 0 each time.
`N#CC1(c2ccc(NC(=O)c3cccnc3NCc3ccncc3)cc2)CCCC1` [Apatinib]: the CATDS in [1], in [2], in assay [3], in [4], in assay [5] and in [6] was 0 each time. Besides, the CATDS in [7], in assay [8], in [9], in [10], in assay [11] and in assay [12] was 0 each time. Also, the CATDS in assay [13], in [14], in [15], in assay [23], in [16] and in assay [17] was 0 throughout. In addition, the CATDS in assay [18], in [19], in assay [20], in assay [21] and in assay [22] was 0 each time.
Consider `CN(C)C/C=C/C(=O)Nc1cc2c(Nc3ccc(F)c(Cl)c3)ncnc2cc1O[C@H]1CCOC1` [Afatinib], for which the CATDS in assay [1], in [2], in assay [4], in assay [7], in assay [8] and in assay [9] was 0 each time. The CATDS in [10], in assay [13], in assay [17], in assay [18], in assay [21] and in assay [22] was 0 throughout.
As to `Nc1ncnc2[nH]c(-c3ccccc3)nc12` [AH5015_KCGS], the CATDS in assay [1], in [2], in assay [3], in [4], in assay [5] and in [6] was 0 in each case. Moreover, the CATDS is on record as 0 in assay [7]; 0 in assay [8]; 0 in assay [9]; 0.03222 in assay [10]; 0 in assay [11]; 0.05532 in assay [12]. In addition, the CATDS in [13], in assay [14], in [15], in assay [23], in [16] and in assay [17] was 0 each time. For the same compound, the CATDS is given as 0 in assay [18]; 0 in [19]; 0 in assay [20]; 0 in assay [21]; 0.0268 in [22].
`CCc1cc2c(cc1N1CCC(N3CCOCC3)CC1)C(C)(C)c1[nH]c3cc(C#N)ccc3c1C2=O` [Alectinib]: the CATDS in assay [1], in [2], in assay [3], in [4], in assay [5] and in assay [6] was 0 throughout. The CATDS in assay [7], in [8], in assay [9], in assay [10], in [11] and in [12] was 0 each time. The CATDS in assay [13], in assay [14], in assay [15], in assay [23], in [16] and in assay [17] was 0 in each case. Also, the CATDS in assay [18], in assay [19], in assay [20], in assay [21] and in assay [22] was 0 in each case.

For the origin of these results see article PMC11062922 (Nature Chemical Biology, 2023).
